Data from PubChem BioAssay AID248 (DTP/NCI, 2004).
“And” between values parts separate entries of the source, which are not always exact repeats. Equal values may be shown once. Inconclusive results and toxic doses are left out. Cut-off read from the data, not from the text of the source: active = T/C of 150% or more; inactive = T/C below 125%.

Test system: L1210 leukemia ip in BDF1 mice, survival T/C
Experiment: NCI In Vivo Anticancer Drug Screen. Data for tumor model L1210 Leukemia (intraperitoneal) in B6D2F1 (BDF1) mice
Conditions: endpoint: mean survival time, higher = longer survival
Summary of the method: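 Tumor was transplanted into mice, which were then dosed with test compound or vehicle alone. Survival was recorded for each group, and the treated figure was expressed relative to the control figure.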

[1] = dose: 100.0 mg/kg/injection, schedule: Q01DX009 (ip), vehicle: saline with Tween-80
[2] = dose: 100.0 mg/kg/injection, schedule: Q04DX003 (ip), vehicle: saline with Tween-80
[3] = dose: 200.0 mg/kg/injection, schedule: Q01DX009 (ip), vehicle: saline with Tween-80
[4] = dose: 200.0 mg/kg/injection, schedule: Q04DX003 (ip), vehicle: saline with Tween-80
[5] = dose: 400.0 mg/kg/injection, schedule: Q01DX009 (ip), vehicle: saline with Tween-80
[6] = dose: 400.0 mg/kg/injection, schedule: Q04DX003 (ip), vehicle: saline with Tween-80
[7] = dose: 50.0 mg/kg/injection, schedule: Q01DX001 (ip), vehicle: saline
[8] = dose: 100.0 mg/kg/injection, schedule: Q01DX001 (ip), vehicle: saline
[9] = dose: 200.0 mg/kg/injection, schedule: Q01DX001 (ip), vehicle: saline
[10] = dose: 400.0 mg/kg/injection, schedule: Q01DX001 (ip), vehicle: saline
[11] = dose: 100.0 mg/kg/injection, schedule: Q04DX003 (ip), vehicle: saline
[12] = dose: 100.0 mg/kg/injection, schedule: Q01DX009 (ip), vehicle: saline
[13] = dose: 200.0 mg/kg/injection, schedule: Q01DX009 (ip), vehicle: saline
[14] = dose: 400.0 mg/kg/injection, schedule: Q01DX009 (ip), vehicle: saline
[15] = dose: 100.0 mg/kg/injection, schedule: Q01DX009 (ip), vehicle: Klucel (hydroxypropylcellulose) (HPC)
[16] = dose: 200.0 mg/kg/injection, schedule: Q01DX009 (ip), vehicle: Klucel (hydroxypropylcellulose) (HPC)
[17] = dose: 400.0 mg/kg/injection, schedule: Q01DX009 (ip), vehicle: Klucel (hydroxypropylcellulose) (HPC)

Measured: T/C

O=C(Nc1ccc2ccccc2c1)c1ccc(Cl)cc1
inactive: [1] 104 % of control and 92 % of control | dose: 100.0 mg/kg/injection, schedule: Q04DX002 (ip), vehicle: saline with Tween-80 94 % of control and 97 % of control | [2] 97 % of control | [3] 97 % of control and 98 % of control | dose: 200.0 mg/kg/injection, schedule: Q04DX002 (ip), vehicle: saline with Tween-80 100 % of control and 101 % of control | [4] 101 % of control | [5] 95 % of control and 111 % of control | dose: 400.0 mg/kg/injection, schedule: Q04DX002 (ip), vehicle: saline with Tween-80 89 % of control and 90 % of control | [6] 97 % of control

COc1cccc(C2N(Cc3ccc(OC)cc3OC)CCCN2Cc2ccc(OC)cc2OC)c1
inactive: [7] 89 % of control | [8] 96 % of control | [9] 91 % of control | [10] 96 % of control

Ic1sc(I)c(I)c1I
inactive: dose: 100.0 mg/kg/injection, schedule: Q01DX001 (ip), vehicle: carboxymethylcellulose (CMC) 95 % of control | dose: 200.0 mg/kg/injection, schedule: Q01DX001 (ip), vehicle: carboxymethylcellulose (CMC) 93 % of control | dose: 400.0 mg/kg/injection, schedule: Q01DX001 (ip), vehicle: carboxymethylcellulose (CMC) 104 % of control

COc1c(Cl)cc([N+](=O)[O-])c(OC)c1[N+](=O)[O-]
inactive: dose: 50.0 mg/kg/injection, schedule: Q01DX009 (ip), vehicle: acetone 90 % of control | dose: 50.0 mg/kg/injection, schedule: Q04DX003 (ip), vehicle: saline 98 % of control | dose: 100.0 mg/kg/injection, schedule: Q01DX001 (ip), vehicle: acetone 94 % of control | dose: 100.0 mg/kg/injection, schedule: Q01DX009 (ip), vehicle: acetone 90 % of control | [11] 93 % of control | dose: 200.0 mg/kg/injection, schedule: Q01DX001 (ip), vehicle: acetone 98 % of control

Clc1ccnc(Cl)n1
inactive: [12] 97 % of control | [11] 96 % of control | [13] 101 % of control | dose: 200.0 mg/kg/injection, schedule: Q04DX003 (ip), vehicle: saline 96 % of control | [14] 97 % of control | dose: 400.0 mg/kg/injection, schedule: Q04DX003 (ip), vehicle: saline 97 % of control

O=C1C(n2ccc(=O)[nH]c2=O)CCN1CCOCc1ccccc1 (configuration not stated)
inactive: [15] 105 % of control | [16] 105 % of control | [17] 100 % of control

CCOCc1c(COc2ccc(Br)cc2)n(CC)c2ccccc12
inactive: [1] 93 % of control | [3] 90 % of control | [5] 90 % of control

CN(C)/C=C1\NC(=S)NC1=O
inactive: [1] 95 % of control | [3] 95 % of control | [5] 91 % of control

O=C(NC/C=C/Br)C(F)(F)F
inactive: dose: 100.0 mg/kg/injection, schedule: Q01DX001 (ip), vehicle: saline with Tween-80 118 % of control | [2] 98 % of control | dose: 200.0 mg/kg/injection, schedule: Q01DX001 (ip), vehicle: saline with Tween-80 96 % of control | [4] 95 % of control | dose: 400.0 mg/kg/injection, schedule: Q01DX001 (ip), vehicle: saline with Tween-80 95 % of control | [6] 97 % of control

CCCCCC(=O)NNc1ccccc1
inactive: dose: 50.0 mg/kg/injection, schedule: Q04DX002 (ip), vehicle: Klucel (hydroxypropylcellulose) (HPC) 104 % of control | dose: 100.0 mg/kg/injection, schedule: Q04DX002 (ip), vehicle: Klucel (hydroxypropylcellulose) (HPC) 104 % of control | dose: 200.0 mg/kg/injection, schedule: Q04DX002 (ip), vehicle: Klucel (hydroxypropylcellulose) (HPC) 111 % of control | dose: 400.0 mg/kg/injection, schedule: Q04DX002 (ip), vehicle: Klucel (hydroxypropylcellulose) (HPC) 104 % of control

C(=N/N=C(N/N=C/c1ccccc1)N/N=C/c1ccccc1)/c1ccccc1
inactive: dose: 15.0 mg/kg/injection, schedule: Q01DX Z (ip), vehicle: carboxymethylcellulose (CMC) 95 % of control | dose: 30.0 mg/kg/injection, schedule: Q01DX Z (ip), vehicle: carboxymethylcellulose (CMC) 95 % of control | dose: 60.0 mg/kg/injection, schedule: Q01DX Z (ip), vehicle: carboxymethylcellulose (CMC) 92 % of control | dose: 120.0 mg/kg/injection, schedule: Q01DX Z (ip), vehicle: carboxymethylcellulose (CMC) 92 % of control | dose: 188.0 mg/kg/injection, schedule: Q01DX Z (oral), vehicle: carboxymethylcellulose (CMC) 95 % of control | dose: 375.0 mg/kg/injection, schedule: Q01DX Z (oral), vehicle: carboxymethylcellulose (CMC) 105 % of control | dose: 750.0 mg/kg/injection, schedule: Q01DX Z (oral), vehicle: carboxymethylcellulose (CMC) 110 % of control | dose: 1500.0 mg/kg/injection, schedule: Q01DX Z (oral), vehicle: carboxymethylcellulose (CMC) 100 % of control

CC(C)(C)c1cc(OCC2CO2)c(C(C)(C)C)cc1OCC1CO1 (configuration not stated)
inactive: [8] 101 % of control | [9] 101 % of control | [10] 92 % of control

Cc1ccc(C(=O)Nc2ccc3c(c2)Cc2ccccc2-3)cc1
inactive: [7] 101 % of control | dose: 50.0 mg/kg/injection, schedule: Q04DX003 (ip), vehicle: Klucel (hydroxypropylcellulose) (HPC) 104 % of control | [8] 101 % of control | dose: 100.0 mg/kg/injection, schedule: Q04DX003 (ip), vehicle: Klucel (hydroxypropylcellulose) (HPC) 100 % of control | [9] 101 % of control | dose: 200.0 mg/kg/injection, schedule: Q04DX003 (ip), vehicle: Klucel (hydroxypropylcellulose) (HPC) 94 % of control | [10] 95 % of control

CCCCCCCCCCCCCCCCCC(=O)Oc1ccc(OCc2ccccc2)cc1
inactive: [15] 105 % of control | [16] 95 % of control | [17] 97 % of control

C[C@]12CCC(=O)C=C1CC[C@@H]1[C@@H]2[C@@H](O)C[C@@]2(C)[C@H]1CC[C@]2(O)C(=O)CF
inactive: dose: 50.0 mg/kg/injection, schedule: Q01DX Z (sc), vehicle: steriod suspending solution 106 % of control | dose: 250.0 mg/kg/injection, schedule: Q01DX Z (sc), vehicle: steriod suspending solution 104 % of control | dose: 500.0 mg/kg/injection, schedule: Q01DX Z (sc), vehicle: steriod suspending solution 107 % of control

O=C(O)c1ccccc1C(=O)c1cccc2ccccc12
inactive: dose: 100.0 mg/kg/injection, schedule: Q04DX002 (ip), vehicle: gum acacia 102 % of control | dose: 200.0 mg/kg/injection, schedule: Q04DX002 (ip), vehicle: gum acacia 104 % of control | dose: 400.0 mg/kg/injection, schedule: Q04DX002 (ip), vehicle: gum acacia 95 % of control

CS/C(N)=N\NC(N)=S
inactive: dose: 100.0 mg/kg/injection, schedule: Q01DX001 (ip), vehicle: Klucel (hydroxypropylcellulose) (HPC) 96 % of control | dose: 200.0 mg/kg/injection, schedule: Q01DX001 (ip), vehicle: Klucel (hydroxypropylcellulose) (HPC) 88 % of control

CCCC#CCOCC1CO1 (configuration not stated)
inactive: [12] 93 % of control | dose: 100.0 mg/kg/injection, schedule: Q04DX003 (ip), vehicle: saline sonified 98 % of control | [13] 89 % of control | dose: 200.0 mg/kg/injection, schedule: Q04DX003 (ip), vehicle: saline sonified 109 % of control | [14] 91 % of control | dose: 400.0 mg/kg/injection, schedule: Q04DX003 (ip), vehicle: saline sonified 104 % of control
